The text below walks through data of US8168651B2, “Protein kinase modulators” (Cylene Pharmaceuticals, Inc., priority 2008, dated 2012).

For experiment [1], the target named is recombinant human CK2 (Homo sapiens (Human), UniProt P68400). Put plainly: CK2 assay (cell-free, 33P-ATP filter plate). The experiment is classed as biochemical. The note with it: for inhibition at 10 µM: read-out: CK2 % inhib @ 10 uM; for inhibition at 5 µM: read-out: CK2 % inhibition 5 uM, 5 uM.
Experiment [2] deals with recombinant human PIM1 (Homo sapiens (Human), UniProt P11309). As to the kind of experiment: PIM-1 kinase activity in cell-free in vitro assay. The experiment is classed as biochemical. The note with it: for inhibition at 0.5 µM: 500 nM compound, read-out: PIM-1: % inh 500 nM.
Sequence of recombinant human PIM1 (P11309 whole entry): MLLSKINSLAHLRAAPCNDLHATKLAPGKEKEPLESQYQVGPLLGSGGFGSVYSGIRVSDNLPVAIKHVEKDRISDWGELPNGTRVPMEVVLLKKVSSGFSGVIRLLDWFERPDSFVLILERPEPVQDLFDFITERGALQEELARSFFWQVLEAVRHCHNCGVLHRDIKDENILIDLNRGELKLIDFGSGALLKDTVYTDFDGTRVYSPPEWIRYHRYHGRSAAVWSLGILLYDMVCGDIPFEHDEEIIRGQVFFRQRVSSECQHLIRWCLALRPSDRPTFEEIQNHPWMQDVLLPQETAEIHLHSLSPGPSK
The subject of experiment [3] is HCT-116 human colorectal carcinoma cells. As to the kind of experiment: Cell-proliferation assay using Alamar Blue dye.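 Further: cells exposed to compound for about 4 days, then Alamar Blue added and dye fluorescence read after about 4 h, compared with medium-only control wells.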 Conditions: Homo sapiens. The experiment is classed as cell-based. (Alamar Blue is a resazurin reagent that responds to reducing activity.)
Where [4] appears, read: read-out: CK2 % inhibition 1.0 uM, 1.0 uM.
[5] abbreviates: HCT-116, HCT-116, second column, read-out: HCT-116 (uM), cell proliferation modulatory activity.
The mark [6] stands for this setting: HCT-116, HCT-116, first column, read-out: HCT-116 (uM), cell proliferation modulatory activity.
The mark [7] stands for this setting: HCT-116, HCT-116, second HCT-116 column (c8), read-out: HCT-116 (uM), cell proliferation modulatory activity.
[8] abbreviates: HCT-116, read-out: HCT-116 (uM), cell proliferation modulatory activity, HCT-116, first column.
Where [9] appears, read: HCT-116, read-out: HCT-116 (uM), cell proliferation modulatory activity, HCT-116, second column.

The structures appear in SMILES notation. Like-named read-outs stand apart in the source and are kept apart here.

Sequence of recombinant human CK2 (P68400 whole entry): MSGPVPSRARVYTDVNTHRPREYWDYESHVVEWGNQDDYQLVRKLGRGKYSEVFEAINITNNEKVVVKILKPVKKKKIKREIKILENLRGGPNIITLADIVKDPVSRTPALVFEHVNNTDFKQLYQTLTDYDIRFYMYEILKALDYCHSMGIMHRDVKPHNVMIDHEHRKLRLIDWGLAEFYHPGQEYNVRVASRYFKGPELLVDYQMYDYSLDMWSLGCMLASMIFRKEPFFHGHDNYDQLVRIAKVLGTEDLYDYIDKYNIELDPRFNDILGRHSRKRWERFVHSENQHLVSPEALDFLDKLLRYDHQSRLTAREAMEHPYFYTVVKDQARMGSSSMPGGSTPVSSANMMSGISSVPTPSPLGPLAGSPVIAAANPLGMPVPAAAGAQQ
Sequence of recombinant human CK2 (P67870 whole entry partner): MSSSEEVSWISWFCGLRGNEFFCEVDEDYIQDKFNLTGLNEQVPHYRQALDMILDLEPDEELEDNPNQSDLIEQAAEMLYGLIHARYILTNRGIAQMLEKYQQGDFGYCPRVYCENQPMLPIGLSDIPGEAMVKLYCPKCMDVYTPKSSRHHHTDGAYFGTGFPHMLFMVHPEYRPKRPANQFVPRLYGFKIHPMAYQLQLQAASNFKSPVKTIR

`O=c1[nH]c2cnccc2c2cnccc12`: the inhibition at 0.5 µM in experiment [1] (500 nM compound, cell-free assay, read-out: CK2: % inh 500 nM) is 7.5%; in experiment [2] (cell-free assay), 19.8%.
Regarding `O=C(c1ccc2c(c1)[nH]c(=O)c1ccsc12)N1CCNCC1`, in experiment [1], the inhibition at 10 µM is -27%.
Take `COC(=O)c1ccccc1NC(=O)c1ccc2c(c1)[nH]c(=O)c1ccsc12` [drawing 673]: in experiment [1], the “CK2 % inhib @ 10 uM” value is 5%.
Turning to `COc1ccc(CNC(=O)c2ccc3c(c2)[nH]c(=O)c2ccsc23)cc1`, the inhibition at 10 µM in experiment [1] was 1%.
Still for that read-out and setting: the same measure for `O=C(Nc1ccc(Cl)cc1)c1ccc2c(c1)[nH]c(=O)c1ccsc12`: -10%; for `COC(=O)c1ccc2c(c1)[nH]c(=O)c1ccsc12`: 17%.
As to `O=C(O)CNC(=O)c1ccc2c(c1)[nH]c(=O)c1ccsc12`, the inhibition at 10 µM in experiment [1] came out at 12%.
Take `CN(C)CCNc1nc2ccccc2c2sccc12` [drawing 589]: the inhibition at 5 µM in experiment [1] is 0%.
Consider `O=c1[nH]c2cc(CO)ccc2c2sccc12`, for which, in experiment [1], the inhibition at 10 µM was 3%.
Regarding `O=C(NCCc1cnc[nH]1)c1ccc2c(c1)[nH]c(=O)c1ccsc12`, in experiment [1], the inhibition at 10 µM worked out at 7%.
On to `N#Cc1ccc2c(c1)nc(Nc1ccccc1)c1ccsc12` [drawing 614], for which the inhibition at 1 µM in experiment [1] (setting [4]) was 0%.
As for `COC(=O)CNC(=O)c1ccc2c(c1)[nH]c(=O)c1ccsc12`, the inhibition at 10 µM in experiment [1] is 10%.
Still for that read-out and setting: the result for `Cc1cc(CNC(=O)c2ccc3c(c2)[nH]c(=O)c2ccsc23)no1` reads -13%; that for `CN(C)C(=O)c1ccc2c(c1)[nH]c(=O)c1ccsc12`, 3%; that for `O=C(NCc1ccccn1)c1ccc2c(c1)[nH]c(=O)c1ccsc12`, 3%.
Same read-out and setting: the result for `O=C(O)c1ccc2c(c1)[nH]c(=O)c1cc(Br)sc12` reads 5%.
For the compound `CC(C)(C)OC(=O)NC1CCN(C(=O)c2ccc3c(c2)[nH]c(=O)c2ccsc23)CC1` [drawing 676], in experiment [1], the “CK2 % inhib @ 10 uM” value worked out at 10%.
As to `O=C(Nc1ccc(CN2CCS(=O)(=O)CC2)cc1)c1ccc2c(c1)[nH]c(=O)c1ccsc12`, the inhibition at 10 µM in experiment [1] is -1%.
Same read-out and setting: the same measure for `O=C(Nc1nccs1)c1ccc2c(c1)[nH]c(=O)c1ccsc12`: 10%; for `CCCNC(=O)c1ccc2c(c1)[nH]c(=O)c1ccsc12`: -34%.
With `O=C(NCc1ccccc1)c1ccc2c(c1)[nH]c(=O)c1ccsc12` [drawing 671], the “CK2 % inhib @ 10 uM” value in experiment [1] is reported as 14%.
With `CC(C)(C)OC(=O)CCNC(=O)c1ccc2c(c1)[nH]c(=O)c1ccsc12`, the inhibition at 10 µM in experiment [1] is 8%.
For `O=C(O)CCNC(=O)c1ccc2c(c1)[nH]c(=O)c1ccsc12`, the inhibition at 10 µM in experiment [1] was found to be 16%.
Consider `NC(=O)c1ccc2c(c1)[nH]c(=O)c1ccsc12`, for which, in experiment [1], the inhibition at 10 µM was -14%.
On the same count and under the same terms, the same measure for `NC1CCN(C(=O)c2ccc3c(c2)[nH]c(=O)c2ccsc23)CC1`: -3%; for `O=C(NCCc1ccccn1)c1ccc2c(c1)[nH]c(=O)c1ccsc12`: -24%.
Take `O=C(O)c1ccc2c(c1)nc(N1CCOCC1)c1ccsc12` [drawing 590]: the inhibition at 5 µM in experiment [1] stood at 28%.
As for `COc1ccc(CCNC(=O)c2ccc3c(c2)[nH]c(=O)c2ccsc23)cc1OC`, in experiment [1], the inhibition at 10 µM is -22%.
On the same count and under the same terms, the result for `O=C(NCCN1CCOCC1)c1ccc2c(c1)[nH]c(=O)c1ccsc12` reads -9%.
In the case of `O=c1[nH]c2cc(-c3nnn[nH]3)ccc2c2cnccc12` [drawing 568], in experiment [1] (at 1 μM, read-out: CK2 Inhibition), the inhibition at 1 µM is 46%.
On to `COC(=O)c1ccccc1NC(=O)c1ccc2c(c1)[nH]c(=O)c1ccsc12` [drawing 674], for which, in experiment [1], the “CK2 % inhib @ 10 uM” value is recorded as −16%.
As to `O=c1[nH]c(-c2ccc3c(c2)nc(Nc2ccccc2)c2ccsc23)no1` [drawing 617], the inhibition at 1 µM in experiment [1] (setting [4]) was 0%.
For `O=C(NCCc1ccccc1)c1ccc2c(c1)[nH]c(=O)c1ccsc12`, the inhibition at 10 µM in experiment [1] is 1%.
On to `O=C(NCc1ccccc1)c1ccc2c(c1)[nH]c(=O)c1ccsc12` [drawing 672], for which the “CK2 % inhib @ 10 uM” value in experiment [1] was −1%.
Take `O=C(Nc1cccnc1)c1ccc2c(c1)[nH]c(=O)c1ccsc12`: in experiment [1], the inhibition at 10 µM was -9%.
Same read-out and setting: the same measure for `O=C(NC1CC1)c1ccc2c(c1)[nH]c(=O)c1ccsc12`: 0%.
Same read-out and setting: the result for `COCCNC(=O)c1ccc2c(c1)[nH]c(=O)c1ccsc12` reads -19%; that for `N#Cc1ccc2c(c1)[nH]c(=O)c1ccsc12`, -5%; that for `COc1ccccc1CNC(=O)c1ccc2c(c1)[nH]c(=O)c1ccsc12`, 8%.
On the same count and under the same terms, the same measure for `O=C(NCc1cccnc1)c1ccc2c(c1)[nH]c(=O)c1ccsc12`: -24%.
`CN(C)CCNc1nc2cc(C#N)ccc2c2sccc12` [drawing 612]: the inhibition at 1 µM in experiment [1] (setting [4]) worked out at 0%.
With `NC(=O)c1ccc2c(c1)nc(Nc1ccccc1)c1ccsc12` [drawing 615], in experiment [1] (setting [4]), the inhibition at 1 µM came to 0%.
Regarding `NC(=O)c1ccc2c(c1)nc(Nc1ccccc1)c1ccsc12` [drawing 1432], the IC50 in experiment [3] (setting [5]) stood at 8.7 µM. Besides, the inhibition at 0.5 µM in experiment [2] (cell-free) is -38.1%.
The like results for `CC(C)c1cccc(Nc2nc3cc(-c4nnn[nH]4)ccc3c3sccc23)c1` were, in that order, over 10 µM and 35.9%.
With `O=C(O)c1ccc2c(c1)nc(Nc1nc3ccccc3[nH]1)c1ccsc12`, the IC50 in experiment [3] (setting [6]) came out at 10 µM. The inhibition at 0.5 µM in experiment [2] (cell-free) was -40.1%.
On to `CN1CCN(c2nc3cc(C(=O)NCc4nccn4C)ccc3c3sccc23)CC1`, for which, in experiment [3] (setting [7]), the IC50 was over 10 µM. Besides, the inhibition at 0.5 µM in experiment [2] (cell-free assay) was -14.5%.
In the case of `O=C(O)c1ccc2c(c1)nc(OCCCO)c1ccsc12`, the IC50 in experiment [3] (setting [8]) came to 10 µM. Besides, the inhibition at 0.5 µM in experiment [2] (cell-free) is -34.7%.
Regarding `CCc1cccc(Nc2nc3cc(-c4nnn[nH]4)ccc3c3sccc23)c1`, the IC50 in experiment [3] (setting [9]) is over 10 µM. For the same compound, in experiment [2] (cell-free), the inhibition at 0.5 µM came out at 61% and the IC50 was over 1.1 µM.
In the case of `CC(C)(C)OC(=O)N1CCN(C(=O)c2ccc3c(c2)[nH]c(=O)c2ccsc23)CC1`, in experiment [1], the inhibition at 10 µM is -25%.
`COc1cc(Nc2nc3cc(-c4nnn[nH]4)ccc3c3sccc23)cc(OC)c1`: the IC50 in experiment [3] (setting [9]) came out at 15 µM. Besides, in experiment [2] (cell-free), the inhibition at 0.5 µM was determined as 55.8% and the IC50 came to 0.465 µM.
Turning to `N#Cc1ccc2c(c1)nc(Cl)c1ccsc12` [drawing 587], in experiment [1], the inhibition at 5 µM came out at 63%.
Take `O=C(O)CNC(=O)c1cccc(Nc2nc3cc(C(=O)O)ccc3c3sccc23)c1`: in experiment [3] (setting [9]), the IC50 is over 10 µM. Further, the inhibition at 0.5 µM in experiment [2] (cell-free) amounted to 24%.
Regarding `O=C(Nc1ccccc1C(=O)O)c1ccc2c(c1)[nH]c(=O)c1ccsc12`, in experiment [1], the inhibition at 10 µM worked out at 41%.
For `O=C(c1ccc2c(c1)[nH]c(=O)c1ccsc12)N1CCOCC1`, the inhibition at 10 µM in experiment [1] was found to be 2%.
Take `O=C(O)c1ccc2c(c1)nc(Nc1ccc3[nH]ccc3c1)c1ccsc12`: in experiment [3] (setting [9]), the IC50 was over 10 µM. Moreover, in experiment [2] (cell-free), the inhibition at 0.5 µM was 51.9% and the IC50 was 0.679 µM.
In the case of `CC(C)(C)OC(=O)NC1CCN(C(=O)c2ccc3c(c2)[nH]c(=O)c2ccsc23)CC1` [drawing 677], the “CK2 % inhib @ 10 uM” value in experiment [1] was 1%.
Consider `CC(=O)N1CCN(C(=O)c2ccc3c(c2)[nH]c(=O)c2ccsc23)CC1`, for which the inhibition at 10 µM in experiment [1] amounted to 7%.
Take `OCCCOc1nc2ccccc2c2ccccc12`: the IC50 in experiment [3] (setting [6]) amounted to 10 µM. In addition, the inhibition at 0.5 µM in experiment [2] (cell-free) stood at 7.28%.
As to `CN1CCN(c2nc3cc(C(=O)O)ccc3c3cnccc23)CC1`, the IC50 in experiment [3] (setting [7]) is over 10 µM. For the same compound, in experiment [2] (cell-free assay), the inhibition at 0.5 µM turned out to be 40.1%.
For `CN(C)CCCNc1nc2cc(-c3nnn[nH]3)ccc2c2sccc12`, the IC50 in experiment [3] (setting [5]) was determined as 15 µM; in experiment [2] (cell-free) it was 0.511 µM. Also, in experiment [2] (cell-free), the inhibition at 0.5 µM was 58.2%.
For the compound `O=C(O)c1ccc2c(c1)nc(NCc1cccnc1)c1nc(NC3CC3)ncc12` [drawing 1625], the IC50 in experiment [3] (HCT-116, read-out: HCT-116 (uM), cell proliferation modulatory activity, HCT-116, second HCT-116 column (c8)) is over 10 µM. Besides, in experiment [2] (cell-free assay), the inhibition at 0.5 µM was found to be 26.9%.
Turning to `O=c1[nH]c2cc(-c3nnn[nH]3)ccc2c2cnccc12` [drawing 1444], the IC50 in experiment [3] (setting [5]) was 15 µM. Further, in experiment [2] (cell-free), the inhibition at 0.5 µM was 3.3%.
On to `CC(C)OCCNC(=O)c1ccc2c(c1)nc(N1CCN(C)CC1)c1ccsc12`, for which the IC50 in experiment [3] (setting [7]) was over 10 µM. The inhibition at 0.5 µM in experiment [2] (cell-free assay) is -3.62%.
The like results for `N#Cc1ccc2c(c1)nc(NCCN1CCCC1)c1ccsc12` were, in that order, 2.2 µM and -22.4%.
As for `O=C(NCc1ccncc1)c1ccc2c(c1)[nH]c(=O)c1ccsc12`, in experiment [1], the inhibition at 10 µM is -13%.
Turning to `CS(=O)(=O)NC(=O)c1ccc2c(c1)nc(Nc1ccccc1)c1ccsc12`, the IC50 in experiment [3] (setting [6]) came out at 10 µM. For the same compound, the inhibition at 0.5 µM in experiment [2] (cell-free) was -15.7%.
Take `c1ccc(Nc2nc3ccccc3c3sccc23)cc1` [drawing 588]: the inhibition at 5 µM in experiment [1] is 0%.
For the compound `Clc1nc2ccccc2c2sccc12`, the IC50 in experiment [3] (setting [6]) came out at 10 µM. Also, the inhibition at 0.5 µM in experiment [2] (cell-free) is -22.1%.
For `O=C(O)c1ccc2c(c1)nc(NCCc1ccccc1)c1ccncc12` [drawing 1511], the IC50 is over 10 µM in experiment [3] (setting [9]) and 0.536 µM in experiment [2] (cell-free). For the same compound, the inhibition at 0.5 µM in experiment [2] (cell-free) came out at 80.9%.
Regarding `O=c1[nH]c2ccccc2c2sccc12`, the inhibition at 10 µM in experiment [1] came to 0%.
Consider `CCOC(=O)c1cccc(Nc2nc3cc(-c4nnn[nH]4)ccc3c3sccc23)c1`, for which the IC50 in experiment [3] (setting [5]) is over 10 µM. Moreover, in experiment [2] (cell-free), the inhibition at 0.5 µM worked out at 34%.
For `O=C(O)c1ccc2c(c1)nc(NCc1ccccn1)c1ccsc12`, the IC50 in experiment [3] (setting [8]) amounted to 10 µM. For the same compound, the inhibition at 0.5 µM in experiment [2] (cell-free) is -36.6%.
The like results for `O=C(O)c1ccc2c(c1)nc(NCCO)c1ccsc12` were, in that order, 10 µM and -49.4%.
